Structures can show the parent of a compound that is named as a salt.

The results in this text go back to patent US20130267494A1, “1,4-OXAZEPANE DERIVATIVES” (priority 2010, published 2013).

The test concerns SD female rats. The test can be described thus: Measurement of urethral resistance increasing effect (leak point pressure, intravenous administration). It is filed as in vivo, rat. As to conditions: for urethral resistance increasing effect (cmH2O): SD female rats. How it is done:
The urethral resistance increasing effect in rat was measured by a modified method of Matsumoto et al. (WO2009/063992) as follows. That is, SD female rats (CLEA Japan, Inc.) were anesthetized with isoflurane (1.0%; Abbott), and the spinal cord was transected at Th8-9 to avoid the voiding reflex. After laparotomy, an intravesical pressure measurement catheter and a saline infusion catheter (PE-100; Clay Adams) were inserted into the bladder. Thereafter, the abdomen of the rat was closed with aronalpha A “Sankyo” (Daiichi Sankyo). The rat with an inserted catheter was placed in a Bollman cage (KN-326 Bollman cage TYPE III; Natsume). The intravesical pressure measurement catheter was connected to a computer via a pressure transducer (REF685640; Nihon Koden), an amplifier (RPM-6008M; Nihon Koden), and a multi-channel data analyzer (MP150; Biopack), and changes in the intravesical pressure were recorded on a hard disc at a frequency of 100 samples/sec. The saline infusion catheter was connected to a 50 mL syringe (Terumo) filled with saline colored with Evans Blue (Wako). The saline was infused into the bladder from the 50 mL syringe filled with saline at a rate of 0.1 mL/sec by using an infusion pump (Kds100; KD Scientific). When the saline leaked from the urethral orifice, infusion was discontinued, and the saline in the bladder was released. The maximum pressure observed during infusion of saline into the bladder and leakage thereof was taken as an LPP (Leak point pressure) value. The measurement was repeated until the LPP value was stabilized, and an average of continuous three stable LPP values was taken as the result. […] The LPP value (Pre value) was measured, a drug was intravenously administered, and the measurement of LPP value (Post value) was again started 10 min after administration. […]
The compound of Example 6 (0.3 mg/kg), the compound of Example 6 (1.0 mg/kg) and the vehicle were administered to the rats, and the urethral resistance increasing effect was measured by the aforementioned method.

As to `CC(=O)NC[C@H]1CNCCO[C@@H]1c1ccc(Cl)c(Cl)c1` (racemic) [Example 6, N-{[(6RS,7SR)-7-(3,4-dichlorophenyl)-1,4-oxazepan-6-yl]methyl}acetamide monohydrochloride], the “urethral resistance increasing effect (cmH2O)” value (dose 0.3 mg/kg) came out at 12.8 ± 1.1 cmH2O and the “urethral resistance increasing effect (cmH2O)” value (dose 1.0 mg/kg) came out at 19.1 ± 1.8 cmH2O. In addition, the “urethral resistance increasing effect (LPP Post value minus Pre value) compared to vehicle” value (spinal cord-transected SD female rats, intravenous 0.3 and 1.0 mg/kg, LPP measured from 10 min after administration, Williams' test) is “dose-dependent and significant urethral resistance increasing effect”.
